The target in test [1] is T1, Alpha-2C adrenergic receptor (Homo sapiens, UniProt P18825).
T1 sequence (P18825 whole entry): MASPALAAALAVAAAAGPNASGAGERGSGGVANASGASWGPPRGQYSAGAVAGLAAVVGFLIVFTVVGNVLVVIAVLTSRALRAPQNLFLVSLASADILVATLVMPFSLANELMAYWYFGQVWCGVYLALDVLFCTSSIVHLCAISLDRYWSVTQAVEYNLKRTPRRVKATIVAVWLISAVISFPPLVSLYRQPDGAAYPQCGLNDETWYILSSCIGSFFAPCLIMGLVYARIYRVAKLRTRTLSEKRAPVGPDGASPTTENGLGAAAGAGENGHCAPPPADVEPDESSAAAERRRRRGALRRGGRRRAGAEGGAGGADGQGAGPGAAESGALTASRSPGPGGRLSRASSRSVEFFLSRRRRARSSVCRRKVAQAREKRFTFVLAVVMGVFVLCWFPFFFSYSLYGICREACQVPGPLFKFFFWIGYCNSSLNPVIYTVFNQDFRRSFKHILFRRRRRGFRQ
Type of test: functional.

For test [2], the target named is Growth hormone secretagogue receptor type 1 (Homo sapiens, UniProt Q92847).
Test [3] concerns the target Glutamate receptor ionotropic, NMDA 1 (Rattus norvegicus, UniProt P35439).
The target in test [4] is Voltage-gated inwardly rectifying potassium channel KCNH2 (Homo sapiens, UniProt Q12809). Type of test: functional.
The target of test [5] is Delta-type opioid receptor (Homo sapiens, UniProt P41143).
Test [6] deals with T2, Prostaglandin G/H synthase 1 (Rattus norvegicus, UniProt Q63921).
T2 sequence (Q63921 whole entry): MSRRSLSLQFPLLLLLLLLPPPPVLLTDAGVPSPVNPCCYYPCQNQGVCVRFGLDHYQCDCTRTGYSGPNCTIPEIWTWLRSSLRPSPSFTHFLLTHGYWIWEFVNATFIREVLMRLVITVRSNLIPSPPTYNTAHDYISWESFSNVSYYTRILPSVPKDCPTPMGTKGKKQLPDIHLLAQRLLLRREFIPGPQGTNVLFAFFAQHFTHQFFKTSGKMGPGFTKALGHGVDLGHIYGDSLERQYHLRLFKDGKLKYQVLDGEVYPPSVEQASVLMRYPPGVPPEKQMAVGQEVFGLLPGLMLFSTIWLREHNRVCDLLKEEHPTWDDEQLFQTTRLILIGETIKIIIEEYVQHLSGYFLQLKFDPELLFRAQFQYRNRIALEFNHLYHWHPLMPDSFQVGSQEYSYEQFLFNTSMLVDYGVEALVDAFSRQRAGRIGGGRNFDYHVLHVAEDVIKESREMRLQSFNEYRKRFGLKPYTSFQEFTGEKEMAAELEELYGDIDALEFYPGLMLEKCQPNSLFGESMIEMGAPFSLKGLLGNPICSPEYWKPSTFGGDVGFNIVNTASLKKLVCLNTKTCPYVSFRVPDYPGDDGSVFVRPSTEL
Type of test: functional.

The target in test [7] is T3, Thromboxane A2 receptor (Homo sapiens, UniProt P21731).
T3 sequence (P21731 whole entry): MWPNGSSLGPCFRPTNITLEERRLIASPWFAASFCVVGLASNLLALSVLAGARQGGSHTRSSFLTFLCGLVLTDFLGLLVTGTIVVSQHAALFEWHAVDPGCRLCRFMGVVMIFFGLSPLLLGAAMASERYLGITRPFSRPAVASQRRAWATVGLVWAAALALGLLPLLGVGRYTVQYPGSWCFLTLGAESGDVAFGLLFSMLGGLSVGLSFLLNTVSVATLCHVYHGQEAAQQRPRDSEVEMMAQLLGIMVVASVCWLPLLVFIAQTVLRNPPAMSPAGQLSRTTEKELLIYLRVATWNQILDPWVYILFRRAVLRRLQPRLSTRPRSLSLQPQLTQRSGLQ

The target of test [8] is Sodium-dependent dopamine transporter (Homo sapiens, UniProt Q01959).
Test [9] addresses D(3) dopamine receptor (Homo sapiens, UniProt P35462).
The target in test [10] is T4, Alpha-2A adrenergic receptor (Homo sapiens, UniProt P08913).
T4 sequence (P08913 whole entry): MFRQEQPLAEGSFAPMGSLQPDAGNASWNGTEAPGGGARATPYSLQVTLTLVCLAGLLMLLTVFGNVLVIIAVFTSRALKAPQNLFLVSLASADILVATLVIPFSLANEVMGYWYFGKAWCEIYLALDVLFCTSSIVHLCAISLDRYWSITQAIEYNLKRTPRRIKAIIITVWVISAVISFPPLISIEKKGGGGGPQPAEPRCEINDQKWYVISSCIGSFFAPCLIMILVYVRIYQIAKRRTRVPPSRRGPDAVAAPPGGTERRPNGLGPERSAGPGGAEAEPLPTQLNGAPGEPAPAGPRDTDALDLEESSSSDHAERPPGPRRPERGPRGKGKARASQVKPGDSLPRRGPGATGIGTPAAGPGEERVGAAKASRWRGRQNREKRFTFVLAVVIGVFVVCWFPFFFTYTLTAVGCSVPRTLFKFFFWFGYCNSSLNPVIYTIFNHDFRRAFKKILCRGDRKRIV
Type of test: functional, cell-based.

Test [11] has as its target T5, 5-hydroxytryptamine receptor 1A (Homo sapiens, UniProt P08908).
T5 sequence (P08908 whole entry): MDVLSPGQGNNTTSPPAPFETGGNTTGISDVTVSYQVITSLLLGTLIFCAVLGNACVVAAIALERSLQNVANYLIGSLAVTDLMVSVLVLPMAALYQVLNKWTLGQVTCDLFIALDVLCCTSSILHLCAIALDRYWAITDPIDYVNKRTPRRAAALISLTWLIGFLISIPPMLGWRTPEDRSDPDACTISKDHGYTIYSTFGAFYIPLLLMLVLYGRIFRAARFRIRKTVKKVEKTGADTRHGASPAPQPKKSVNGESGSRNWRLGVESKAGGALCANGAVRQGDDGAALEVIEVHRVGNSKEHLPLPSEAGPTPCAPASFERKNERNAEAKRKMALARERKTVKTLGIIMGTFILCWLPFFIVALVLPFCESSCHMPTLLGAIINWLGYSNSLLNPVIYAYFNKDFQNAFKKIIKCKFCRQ
Type of test: functional, cell-based.

Usually AC50 stands for the concentration giving half of the maximal activity seen. Read a high AC50 as weaker potency.

Bounds are passed on as bounds.
Also: assay procedure not described here.

Chain of Growth hormone secretagogue receptor type 1 (Q92847 whole entry): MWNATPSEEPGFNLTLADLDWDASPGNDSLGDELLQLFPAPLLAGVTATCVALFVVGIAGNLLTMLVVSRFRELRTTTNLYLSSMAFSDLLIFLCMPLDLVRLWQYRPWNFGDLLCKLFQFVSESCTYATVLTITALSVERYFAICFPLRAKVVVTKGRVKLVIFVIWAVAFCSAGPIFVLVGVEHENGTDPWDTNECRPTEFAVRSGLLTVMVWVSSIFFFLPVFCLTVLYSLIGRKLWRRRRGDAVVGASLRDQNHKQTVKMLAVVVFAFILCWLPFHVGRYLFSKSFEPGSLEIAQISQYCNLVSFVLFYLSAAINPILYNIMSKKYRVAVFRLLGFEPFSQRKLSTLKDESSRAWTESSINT
Chain of Voltage-gated inwardly rectifying potassium channel KCNH2 (Q12809 whole entry): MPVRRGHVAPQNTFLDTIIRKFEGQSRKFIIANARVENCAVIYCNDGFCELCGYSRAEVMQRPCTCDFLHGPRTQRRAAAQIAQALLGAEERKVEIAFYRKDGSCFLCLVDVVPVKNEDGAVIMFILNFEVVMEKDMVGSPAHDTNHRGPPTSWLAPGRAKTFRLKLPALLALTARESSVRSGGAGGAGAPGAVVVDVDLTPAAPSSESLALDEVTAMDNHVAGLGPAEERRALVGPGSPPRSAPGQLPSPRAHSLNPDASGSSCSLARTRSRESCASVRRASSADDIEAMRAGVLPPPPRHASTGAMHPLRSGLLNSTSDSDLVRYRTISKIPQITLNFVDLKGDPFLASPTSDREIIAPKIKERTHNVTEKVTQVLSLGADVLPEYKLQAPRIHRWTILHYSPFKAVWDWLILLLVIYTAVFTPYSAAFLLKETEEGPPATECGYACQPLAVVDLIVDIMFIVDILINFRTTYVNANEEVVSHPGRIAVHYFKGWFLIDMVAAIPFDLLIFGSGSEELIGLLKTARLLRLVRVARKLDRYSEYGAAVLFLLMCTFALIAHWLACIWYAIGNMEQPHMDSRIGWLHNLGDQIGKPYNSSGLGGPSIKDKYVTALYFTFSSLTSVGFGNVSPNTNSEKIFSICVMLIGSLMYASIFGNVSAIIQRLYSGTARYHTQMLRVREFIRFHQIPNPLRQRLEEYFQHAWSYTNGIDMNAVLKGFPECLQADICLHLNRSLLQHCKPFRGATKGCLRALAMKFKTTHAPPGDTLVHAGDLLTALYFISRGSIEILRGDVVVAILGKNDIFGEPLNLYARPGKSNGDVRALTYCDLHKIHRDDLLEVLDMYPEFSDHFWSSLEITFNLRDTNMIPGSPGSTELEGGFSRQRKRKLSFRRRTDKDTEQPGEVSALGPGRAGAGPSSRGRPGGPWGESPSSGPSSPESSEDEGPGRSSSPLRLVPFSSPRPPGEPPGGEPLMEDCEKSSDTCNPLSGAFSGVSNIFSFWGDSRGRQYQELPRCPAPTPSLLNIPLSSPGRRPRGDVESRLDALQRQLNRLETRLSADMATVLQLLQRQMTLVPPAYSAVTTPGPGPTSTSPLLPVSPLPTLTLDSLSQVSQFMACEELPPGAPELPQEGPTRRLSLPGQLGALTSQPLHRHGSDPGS
Chain of D(3) dopamine receptor (P35462 whole entry): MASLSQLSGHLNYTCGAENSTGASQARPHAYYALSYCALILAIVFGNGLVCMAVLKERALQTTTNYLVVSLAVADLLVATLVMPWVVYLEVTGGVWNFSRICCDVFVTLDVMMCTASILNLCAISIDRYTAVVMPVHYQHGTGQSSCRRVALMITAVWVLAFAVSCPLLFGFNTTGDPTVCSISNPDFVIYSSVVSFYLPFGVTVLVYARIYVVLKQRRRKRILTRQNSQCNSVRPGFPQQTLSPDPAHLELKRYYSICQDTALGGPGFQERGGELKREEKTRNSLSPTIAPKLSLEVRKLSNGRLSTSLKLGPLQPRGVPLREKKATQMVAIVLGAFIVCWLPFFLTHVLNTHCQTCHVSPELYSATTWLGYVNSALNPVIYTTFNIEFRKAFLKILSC
Chain of Sodium-dependent dopamine transporter (Q01959 whole entry): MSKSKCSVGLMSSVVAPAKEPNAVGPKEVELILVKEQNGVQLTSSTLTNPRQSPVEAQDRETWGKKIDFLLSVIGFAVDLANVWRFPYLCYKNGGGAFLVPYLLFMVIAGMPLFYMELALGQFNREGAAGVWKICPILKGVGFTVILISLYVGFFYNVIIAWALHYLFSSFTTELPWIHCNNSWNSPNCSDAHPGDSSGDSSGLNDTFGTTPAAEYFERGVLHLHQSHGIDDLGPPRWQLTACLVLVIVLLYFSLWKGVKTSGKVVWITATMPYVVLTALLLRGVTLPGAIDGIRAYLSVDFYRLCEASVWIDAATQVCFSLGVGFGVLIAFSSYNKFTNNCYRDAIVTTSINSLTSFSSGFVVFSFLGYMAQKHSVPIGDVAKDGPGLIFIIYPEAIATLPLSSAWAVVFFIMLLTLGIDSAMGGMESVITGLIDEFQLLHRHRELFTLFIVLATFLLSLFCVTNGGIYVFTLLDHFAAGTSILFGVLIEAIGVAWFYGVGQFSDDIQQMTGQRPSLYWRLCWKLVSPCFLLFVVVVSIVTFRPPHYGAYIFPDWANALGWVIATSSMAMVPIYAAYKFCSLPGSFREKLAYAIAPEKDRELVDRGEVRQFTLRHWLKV
Chain of Delta-type opioid receptor (P41143 whole entry): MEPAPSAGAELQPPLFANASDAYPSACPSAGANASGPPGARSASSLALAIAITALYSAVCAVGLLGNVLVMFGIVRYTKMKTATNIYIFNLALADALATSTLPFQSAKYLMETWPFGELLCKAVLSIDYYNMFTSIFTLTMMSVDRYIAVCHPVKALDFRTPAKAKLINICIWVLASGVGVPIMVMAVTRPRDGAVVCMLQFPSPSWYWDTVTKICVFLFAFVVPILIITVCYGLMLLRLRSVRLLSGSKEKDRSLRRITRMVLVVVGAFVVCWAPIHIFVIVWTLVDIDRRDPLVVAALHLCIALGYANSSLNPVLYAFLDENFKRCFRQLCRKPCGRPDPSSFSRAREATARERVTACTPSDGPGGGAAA

Regarding `CCC[C@H](NC(=O)[C@@H]1[C@H]2CCC[C@H]2CN1C(=O)[C@@H](NC(=O)[C@@H](NC(=O)c1cnccn1)C1CCCCC1)C(C)(C)C)C(=O)C(=O)NC1CC1`, the concentration at half-maximal activity (AC50) was > 10 µM in [1]; > 30 µM in test [2]; > 10 µM in test [3]; > 30 µM in test [4]; > 30 µM in test [5]; > 30 µM in [6]. Moreover, the concentration at half-maximal activity (AC50) in test [7] was > 30 µM; in test [8], > 10 µM; in test [9], > 30 µM.
With `CC(=O)N[C@@H](CS)C(=O)O` [ACETYLCYSTEINE], the half-maximal activity concentration (AC50) in test [10], in test [1], in test [2], in test [3], in [11] and in test [4] was > 30 µM in each case. Also, the AC50 in test [5], in [7], in test [8] and in test [9] was > 30 µM in each case.
Regarding `CN1CCC(=C2c3ccccc3CCc3cccnc32)CC1` [AZATADINE], the AC50 is > 10 µM in test [10]; > 30 µM in [2]; > 10 µM in [3]; > 30 µM in test [11]; 24.6 µM in test [4]; > 30 µM in [5]. For the same compound, the AC50 in [6] was > 30 µM; in [7] it was > 30 µM; in [8], > 30 µM; in [9], > 10 µM.
As for `CC(C)COCC(CN(Cc1ccccc1)c1ccccc1)N1CCCC1` (stereo not drawn) [BEPRIDIL], the concentration at half-maximal activity (AC50) in [10] is > 30 µM; in [1] it was 3.3 µM; in [2] it was 22.1 µM; in test [3], > 30 µM; in test [11], > 30 µM; in test [5], > 30 µM. The half-maximal activity concentration (AC50) in test [6] was > 30 µM; in test [7] it was > 30 µM; in test [8], 16.2 µM; in test [9], 2.6 µM.
As to `COc1cc(N)c(Cl)cc1C(=O)NC1CCN(Cc2ccccc2)CC1` [CLEBOPRIDE], the AC50 is > 30 µM in test [10]; 2.1 µM in test [1]; > 30 µM in test [2]; > 30 µM in [3]; > 30 µM in test [11]; 1.4 µM in test [4]. Besides, the AC50 in test [5] was > 30 µM; in test [6] it was 14 µM; in [7] it was > 30 µM; in [8], 22 µM.
Regarding `Cc1cnc(C(=O)NCCc2ccc(S(=O)(=O)NC(=O)NC3CCCCC3)cc2)cn1` [GLIPIZIDE], the AC50 in [10] was > 10 µM; in [1], > 10 µM; in test [2], > 30 µM; in [3] it was > 10 µM; in test [11] it was > 10 µM; in [5], > 10 µM. In addition, the AC50 in test [7] is > 30 µM.
On to `CC(C)NCC(O)c1ccc(O)c(O)c1` (stereo not drawn) [ISOPROTERENOL], for which the concentration at half-maximal activity (AC50) was > 30 µM in test [2]; > 10 µM in [3]; > 10 µM in test [11]; > 30 µM in [4]; > 10 µM in test [5]; > 30 µM in test [6]. For the same compound, the AC50 in [7], in [8] and in test [9] was > 30 µM in each case.
For the compound `CN1CCN(C2=Nc3ccccc3Oc3ccc(Cl)cc32)CC1` [LOXAPINE], the AC50 was > 30 µM in test [2]; > 10 µM in test [3]; > 10 µM in [11]; 10.6 µM in test [4]; 8.51 µM in test [5]; > 30 µM in [6]. The results for the half-maximal activity concentration (AC50) in test [7], in [8] and in test [9] were > 30 µM, > 10 µM and 0.032 µM, respectively.
`OC1(c2ccc(Cl)cc2)c2ccccc2C2=NCCN21` (stereo not drawn) [MAZINDOL]: the AC50 in test [10], in [1], in test [2], in test [3], in test [11] and in [4] was > 30 µM throughout. Further, the concentration at half-maximal activity (AC50) in [5], in test [6], in test [7] and in [9] was > 30 µM each time.
With `CC12CC3CC(C)(C1)CC(N)(C3)C2` [MEMANTINE], the AC50 is > 10 µM in [10]; > 10 µM in test [1]; > 30 µM in test [2]; > 10 µM in test [11]; > 30 µM in test [4]; > 30 µM in test [5]. Besides, the AC50 in [6], in [7], in test [8] and in test [9] was > 30 µM in each case.
In the case of `CN(C)CCCNc1c2ccccc2nc2cccc([N+](=O)[O-])c12` [NITRACRINE], the concentration at half-maximal activity (AC50) is > 30 µM in test [10]; 5.2 µM in [1]; > 30 µM in test [2]; > 30 µM in test [3]; > 30 µM in test [11]; 0.46 µM in [4]. For the same compound, the AC50 in [6] is > 30 µM; in test [7] it was > 30 µM; in test [8], > 30 µM; in test [9], 9.8 µM.
`CCCN[C@H]1CCc2nc(N)sc2C1` [PRAMIPEXOLE]: the concentration at half-maximal activity (AC50) in [1] was > 10 µM; in [2] it was > 30 µM; in [3], > 10 µM; in test [11], 16 µM; in test [4], > 30 µM; in test [5], > 30 µM. Further, the concentration at half-maximal activity (AC50) in test [6], in test [7] and in test [8] was > 30 µM each time.
In the case of `Cc1cccc(N2CC(CO)OC2=O)c1` (stereo not drawn) [TOLOXATONE], the AC50 in test [10], in [1], in [2], in [3], in test [11] and in test [4] was > 30 µM each time. The AC50 in [6], in [7], in [8] and in [9] was > 30 µM each time.

The record behind these values is ChEMBL document CHEMBL5291721, “A preclinical secondary pharmacology resource illuminates target-adverse drug reaction associations of marketed drugs” (Nat Commun, 2023).
